Measurements published in patent publication US10392368B2, “Pyrazolo and triazolo bicyclic compounds as JAK kinase inhibitors” (THERAVANCE BIOPHARMA R&D IP, LLC, priority 2017, dated 2019).

How the values were obtained:
JAK1 = molecular target: T1, JAK1 (Homo sapiens, UniProt P23458); test: Biochemical JAK1 kinase assay (LanthaScreen); conditions: for Ki: read-out: JAK 1 (pKi) (converted)
T1 construct: GST; purchased Life Technologies
Method in brief: (§1)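 TR-FRET readout (520/495 nm) using Tb-labelled pTyr701 antibody after EDTA stop, following 1 h ATP-started phosphorylation of GFP-STAT1 by recombinant GST-JAK. Compounds preincubated 1 h with enzyme and substrate; pIC50 from 4-parameter fit, Cheng-Prusoff gives pKi.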

JAK2 = molecular target: T2, JAK2 (Homo sapiens, UniProt O60674); test: Biochemical JAK2 kinase assay (LanthaScreen); conditions: for Ki: read-out: JAK 2 (pKi) (converted)
T2 construct: GST; purchased Life Technologies
Method in brief: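 pKi values derive from pIC50 via Cheng-Prusoff, with IC50 from a 4-parameter fit of percent-inhibition TR-FRET data using Tb-anti-pSTAT1 (pTyr701) detection. Compound, GST-JAK2 and GFP-STAT1 substrate were pre-incubated 1 h, then ATP started a 1 h ambient reaction (HEPES pH 7.5, 10 mM MgCl2, 1% DMSO).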

Tyk2 = molecular target: T3, Tyk2 (Homo sapiens, UniProt P29597); test: Biochemical Tyk2 kinase assay (LanthaScreen); conditions: for Ki: read-out: Tyk 2 (pKi) (converted)
T3 construct: GST; purchased Life Technologies
Method in brief: as §1

[1] = tested on: IL-2 stimulated pSTAT5 in Tall-1 T cells; test: Cellular JAK3 potency assay: inhibition of IL-2 stimulated pSTAT5 in Tall-1 T cells; type: cell-based, human; conditions: for Tall-1 (pIC50): IL-2 stimulated pSTAT5 in Tall-1 T cells; for IC50: Homo sapiens, TALL-1, IL-2 stimulated pSTAT5 in Tall-1 T cells, read-out: Tall-1 (pIC50) (converted)
Method in brief: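 Tall-1 human T cells were preincubated with compound for 1 h at 37° C, then stimulated with IL-2 (300 ng/ml final) for 30 min. STAT5 phosphorylation in lysates was read by AlphaLisa bead emission, and IC50 from inhibition curves is given as pIC50 (mean±SD).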

JAK3 = molecular target: T4, JAK3 (Homo sapiens, UniProt P52333); test: Biochemical JAK3 kinase assay (LanthaScreen); parameters: GST; purchased Life Technologies; conditions: for JAK3 (pKi)-JAK1 (pKi): selectivity: difference of pKi JAK3 and pKi JAK1; for Ki: read-out: JAK 3 (pKi) (converted)
T4 sequence (P52333 1-1124): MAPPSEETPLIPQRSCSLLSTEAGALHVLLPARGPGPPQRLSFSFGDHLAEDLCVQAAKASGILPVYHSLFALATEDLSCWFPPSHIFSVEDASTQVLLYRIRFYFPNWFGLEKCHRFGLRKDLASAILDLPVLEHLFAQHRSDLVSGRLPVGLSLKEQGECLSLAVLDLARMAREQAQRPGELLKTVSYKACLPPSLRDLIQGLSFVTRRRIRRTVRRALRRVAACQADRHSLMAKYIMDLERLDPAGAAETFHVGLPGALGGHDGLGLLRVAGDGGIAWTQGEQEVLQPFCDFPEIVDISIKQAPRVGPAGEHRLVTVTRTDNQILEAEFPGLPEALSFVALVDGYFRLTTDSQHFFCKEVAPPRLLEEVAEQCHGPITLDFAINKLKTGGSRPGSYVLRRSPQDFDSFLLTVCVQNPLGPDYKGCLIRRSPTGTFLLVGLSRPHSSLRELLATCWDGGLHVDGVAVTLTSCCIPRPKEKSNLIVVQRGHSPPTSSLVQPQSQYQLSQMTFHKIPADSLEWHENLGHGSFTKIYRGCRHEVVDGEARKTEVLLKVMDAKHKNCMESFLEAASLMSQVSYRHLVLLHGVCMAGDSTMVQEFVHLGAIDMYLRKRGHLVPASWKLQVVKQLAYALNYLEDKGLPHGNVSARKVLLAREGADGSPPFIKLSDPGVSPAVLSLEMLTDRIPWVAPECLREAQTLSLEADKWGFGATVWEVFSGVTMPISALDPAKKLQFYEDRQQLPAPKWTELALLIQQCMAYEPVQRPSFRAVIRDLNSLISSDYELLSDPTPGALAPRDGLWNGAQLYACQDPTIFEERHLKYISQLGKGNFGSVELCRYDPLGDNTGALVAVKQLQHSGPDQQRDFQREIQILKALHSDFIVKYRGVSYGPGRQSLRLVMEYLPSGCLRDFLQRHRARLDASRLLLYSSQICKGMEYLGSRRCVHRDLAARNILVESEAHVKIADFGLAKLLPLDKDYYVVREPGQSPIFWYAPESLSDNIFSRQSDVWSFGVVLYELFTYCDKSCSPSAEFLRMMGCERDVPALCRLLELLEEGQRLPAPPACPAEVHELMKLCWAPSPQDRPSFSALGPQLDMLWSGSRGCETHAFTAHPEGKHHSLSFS
Method in brief: as §1

T3 sequence (P29597 whole entry): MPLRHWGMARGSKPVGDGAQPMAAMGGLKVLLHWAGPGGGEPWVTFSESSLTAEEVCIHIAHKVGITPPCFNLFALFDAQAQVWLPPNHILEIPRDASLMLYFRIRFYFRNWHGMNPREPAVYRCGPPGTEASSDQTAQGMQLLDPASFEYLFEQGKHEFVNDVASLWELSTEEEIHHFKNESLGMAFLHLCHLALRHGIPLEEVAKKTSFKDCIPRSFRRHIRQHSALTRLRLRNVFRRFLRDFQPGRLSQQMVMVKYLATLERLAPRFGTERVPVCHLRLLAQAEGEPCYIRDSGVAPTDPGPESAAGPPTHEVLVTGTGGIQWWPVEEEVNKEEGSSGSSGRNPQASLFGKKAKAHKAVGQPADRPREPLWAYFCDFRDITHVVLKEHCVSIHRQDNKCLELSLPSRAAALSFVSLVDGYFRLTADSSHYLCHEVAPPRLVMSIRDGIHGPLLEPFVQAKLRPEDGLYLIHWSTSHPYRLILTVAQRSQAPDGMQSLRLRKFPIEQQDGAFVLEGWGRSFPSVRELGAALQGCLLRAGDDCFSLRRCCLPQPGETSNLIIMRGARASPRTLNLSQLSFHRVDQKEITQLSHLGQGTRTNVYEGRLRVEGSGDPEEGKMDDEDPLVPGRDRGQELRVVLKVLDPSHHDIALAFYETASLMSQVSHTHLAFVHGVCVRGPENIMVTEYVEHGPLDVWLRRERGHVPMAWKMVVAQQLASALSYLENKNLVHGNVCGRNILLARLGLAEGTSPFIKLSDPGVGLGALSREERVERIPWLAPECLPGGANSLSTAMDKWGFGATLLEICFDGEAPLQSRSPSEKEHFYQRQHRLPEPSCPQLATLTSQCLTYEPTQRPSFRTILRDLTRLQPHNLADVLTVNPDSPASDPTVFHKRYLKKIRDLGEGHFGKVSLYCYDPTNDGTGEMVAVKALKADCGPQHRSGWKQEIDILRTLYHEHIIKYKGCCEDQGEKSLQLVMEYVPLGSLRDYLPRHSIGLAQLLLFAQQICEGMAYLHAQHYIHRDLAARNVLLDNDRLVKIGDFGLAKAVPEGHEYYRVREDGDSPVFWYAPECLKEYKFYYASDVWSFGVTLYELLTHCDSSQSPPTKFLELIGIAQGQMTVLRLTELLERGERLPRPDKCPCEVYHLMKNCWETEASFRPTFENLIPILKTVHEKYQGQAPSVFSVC
T2 sequence (O60674 whole entry): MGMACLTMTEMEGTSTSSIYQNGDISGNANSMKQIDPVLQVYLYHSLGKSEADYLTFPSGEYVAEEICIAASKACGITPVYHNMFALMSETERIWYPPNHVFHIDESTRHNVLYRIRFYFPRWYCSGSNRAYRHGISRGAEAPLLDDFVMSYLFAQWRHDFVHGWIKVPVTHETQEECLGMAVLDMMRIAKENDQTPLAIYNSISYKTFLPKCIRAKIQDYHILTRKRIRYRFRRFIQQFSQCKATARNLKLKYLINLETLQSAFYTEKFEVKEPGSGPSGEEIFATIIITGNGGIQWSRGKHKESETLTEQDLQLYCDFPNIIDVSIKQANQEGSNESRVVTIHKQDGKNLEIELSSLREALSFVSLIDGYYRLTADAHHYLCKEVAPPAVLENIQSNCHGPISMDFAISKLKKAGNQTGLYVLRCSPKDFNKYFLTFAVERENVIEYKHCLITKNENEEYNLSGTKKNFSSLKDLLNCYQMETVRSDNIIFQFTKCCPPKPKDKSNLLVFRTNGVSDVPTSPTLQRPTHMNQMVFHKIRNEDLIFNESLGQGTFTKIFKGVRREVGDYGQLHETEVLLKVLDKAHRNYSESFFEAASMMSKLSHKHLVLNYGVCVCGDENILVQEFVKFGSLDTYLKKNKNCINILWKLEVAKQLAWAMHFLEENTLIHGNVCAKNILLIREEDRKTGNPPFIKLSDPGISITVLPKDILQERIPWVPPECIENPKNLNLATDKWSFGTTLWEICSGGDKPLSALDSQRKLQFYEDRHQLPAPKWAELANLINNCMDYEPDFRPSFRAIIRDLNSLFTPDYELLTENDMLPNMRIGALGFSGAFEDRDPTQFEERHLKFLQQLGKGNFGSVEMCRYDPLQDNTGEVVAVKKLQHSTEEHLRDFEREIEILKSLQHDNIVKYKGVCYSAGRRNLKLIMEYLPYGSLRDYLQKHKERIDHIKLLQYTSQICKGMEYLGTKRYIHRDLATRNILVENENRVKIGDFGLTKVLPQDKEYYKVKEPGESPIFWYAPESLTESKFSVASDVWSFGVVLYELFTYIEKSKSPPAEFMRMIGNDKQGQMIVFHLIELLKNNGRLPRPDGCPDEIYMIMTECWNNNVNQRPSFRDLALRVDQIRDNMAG
T1 sequence (P23458 whole entry): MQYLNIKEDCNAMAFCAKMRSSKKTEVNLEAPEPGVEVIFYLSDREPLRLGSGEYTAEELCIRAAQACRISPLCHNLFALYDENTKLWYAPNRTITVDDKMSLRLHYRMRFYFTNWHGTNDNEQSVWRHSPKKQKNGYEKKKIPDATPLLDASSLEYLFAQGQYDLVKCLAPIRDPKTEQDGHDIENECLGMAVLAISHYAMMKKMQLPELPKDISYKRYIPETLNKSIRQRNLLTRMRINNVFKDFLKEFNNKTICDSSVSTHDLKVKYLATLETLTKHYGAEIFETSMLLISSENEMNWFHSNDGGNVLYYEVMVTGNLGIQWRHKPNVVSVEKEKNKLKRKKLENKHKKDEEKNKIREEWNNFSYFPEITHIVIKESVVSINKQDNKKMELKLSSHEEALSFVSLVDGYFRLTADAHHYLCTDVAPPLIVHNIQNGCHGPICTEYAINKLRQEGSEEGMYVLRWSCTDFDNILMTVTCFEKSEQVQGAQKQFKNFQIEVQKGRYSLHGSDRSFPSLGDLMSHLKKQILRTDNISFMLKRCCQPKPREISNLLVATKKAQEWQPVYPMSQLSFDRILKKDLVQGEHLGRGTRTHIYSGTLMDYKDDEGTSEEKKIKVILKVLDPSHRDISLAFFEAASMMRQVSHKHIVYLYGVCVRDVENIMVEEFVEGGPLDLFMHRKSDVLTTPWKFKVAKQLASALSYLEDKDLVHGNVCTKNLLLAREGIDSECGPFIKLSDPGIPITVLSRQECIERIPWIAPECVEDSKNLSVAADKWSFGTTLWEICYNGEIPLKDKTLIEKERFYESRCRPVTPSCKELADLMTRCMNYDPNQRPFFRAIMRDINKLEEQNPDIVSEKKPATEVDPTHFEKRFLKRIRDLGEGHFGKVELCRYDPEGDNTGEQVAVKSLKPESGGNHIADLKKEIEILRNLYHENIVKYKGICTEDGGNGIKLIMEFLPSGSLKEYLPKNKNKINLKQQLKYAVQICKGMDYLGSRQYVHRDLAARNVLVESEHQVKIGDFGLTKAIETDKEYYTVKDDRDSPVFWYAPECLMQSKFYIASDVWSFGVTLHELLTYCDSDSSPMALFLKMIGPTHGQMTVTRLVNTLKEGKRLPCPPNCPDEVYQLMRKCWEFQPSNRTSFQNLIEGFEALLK

SMILES	JAK 1 (pKi) (JAK1)	JAK 2 (pKi) (JAK2)	Tyk 2 (pKi) (Tyk2)	Tall-1 (pIC50) [1]	JAK 3 (pKi) (JAK3)	JAK3 (pKi)-JAK1 (pKi) (JAK3)	Ki (JAK1) [nM]	Ki (JAK2) [nM]	Ki (Tyk2) [nM]	IC50 [1] [nM]	Ki (JAK3) [nM]
CN(C)C/C=C/C(=O)N1CC(F)(COc2cc(-c3ccc(O)c(Cl)c3)nc3[nH]ncc23)C1 [Compound 3-52]	E (a pKi value of 7 or below (Ki of 100 nM or above))	E (a pKi value of 7 or below (Ki of 100 nM or above))	E (a pKi value of 7 or below (Ki of 100 nM or above))	B (a pIC50 value between 6.7 (included) and 7.5 (IC50 between 200 nM and 32 nM))	B (a pKi value between 9 and 10 (Ki between 1 nM and 0.1 nM))	A (a value of 3 or above)	–	–	–	–	–
CN(C)C/C=C/C(=O)N1CC(F)(COc2cc(-c3ccc(O)c(F)c3)nc3[nH]ncc23)C1 [Compound 3-53]	–	–	–	–	–	A (a value of 3 or above)	> 100	> 100	> 100	31.6 to 200	0.1 to 1
C=CC(=O)N1CC(F)(COc2cc(-c3ccc(O)c(F)c3)nc3[nH]ncc23)C1 [Compound 3-54]	E (a pKi value of 7 or below (Ki of 100 nM or above))	E (a pKi value of 7 or below (Ki of 100 nM or above))	E (a pKi value of 7 or below (Ki of 100 nM or above))	A (a pIC50 value≥7.5 (IC50≤32 nM))	B (a pKi value between 9 and 10 (Ki between 1 nM and 0.1 nM))	A (a value of 3 or above)	–	–	–	–	–
C=CC(=O)N1CC(C)(COc2nc(-c3ccc(O)cc3)cc3[nH]ncc23)C1 [Compound 3-56]	–	–	–	–	–	A (a value of 3 or above)	> 100	10 to 100	> 100	< 31.6	< 0.1
C=CC(=O)N1CC(C)(COc2cc(-c3ccc(O)cc3)nc3[nH]ncc23)C1 [Compound 3-58]	E (a pKi value of 7 or below (Ki of 100 nM or above))	E (a pKi value of 7 or below (Ki of 100 nM or above))	E (a pKi value of 7 or below (Ki of 100 nM or above))	B (a pIC50 value between 6.7 (included) and 7.5 (IC50 between 200 nM and 32 nM))	A (a pKi value≥10 (Ki≤0.1 nM))	A (a value of 3 or above)	–	–	–	–	–
C=CC(=O)N1CC(C)(COc2nc(-c3ccc(O)c(F)c3)cc3[nH]ncc23)C1 [Compound 3-59]	E (a pKi value of 7 or below (Ki of 100 nM or above))	D (a pKi value between 7 and 8 (Ki between 100 nM and 10 nM))	E (a pKi value of 7 or below (Ki of 100 nM or above))	A (a pIC50 value≥7.5 (IC50≤32 nM))	B (a pKi value between 9 and 10 (Ki between 1 nM and 0.1 nM))	B (a value of 2.3 to 3)	–	–	–	–	–
C=C(CN(C)C)C(=O)N1CC(COc2nc(-c3ccc(O)c(Cl)c3)nc3[nH]ncc23)C1 [Compound 3-60]	E (a pKi value of 7 or below (Ki of 100 nM or above))	E (a pKi value of 7 or below (Ki of 100 nM or above))	E (a pKi value of 7 or below (Ki of 100 nM or above))	B (a pIC50 value between 6.7 (included) and 7.5 (IC50 between 200 nM and 32 nM))	A (a pKi value≥10 (Ki≤0.1 nM))	A (a value of 3 or above)	–	–	–	–	–
CCC1(COc2nc(-c3ccc(O)cc3)cc3[nH]ncc23)CN(C(=O)/C=C/CN(C)C)C1 [Compound 3-61]	E (a pKi value of 7 or below (Ki of 100 nM or above))	D (a pKi value between 7 and 8 (Ki between 100 nM and 10 nM))	E (a pKi value of 7 or below (Ki of 100 nM or above))	A (a pIC50 value≥7.5 (IC50≤32 nM))	A (a pKi value≥10 (Ki≤0.1 nM))	A (a value of 3 or above)	–	–	–	–	–
